Test results: article PMC5048153 (Scientific Reports, 2016)

How the values were obtained:
[1] = tested on: corticosterone injured PC12 cells; assay: Real-time PCR BDNF mRNA level; type: cell-based, rat; details: 200 µM corticosterone and 5 µM drug
rat hippocampus = assay: Cell survival, proliferation and maturation in the rat hippocampus; type: in vivo; details: rats, 21 days
Experimental: The detailed procedures were performed according to the reported literatures.
Wistar rats were used herein. Agomelatine were purchased from Dalian Meilun Biotech Company. […] For cell proliferation study, BrdU (200 mg/kg i.p.) was administered 2 h before perfusion. For cell maturation and survival studies, animals received five injections of BrdU (75 mg/kg, 2 h intervals) the first day of treatment and were killed 21 days later. […] was randomly selected 8 visual fields for statistical analysis.

[2] = tested on: corticosterone-injured PC12 cells; assay: Protective effects on corticosterone-injured PC12 cells (MTT); type: cell-based, rat; details: 24 h after treatment; for PR (protection rate): 200 μM corticosterone
Summary of the method: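 PC12 cells seeded at 1 × 10^5 per well and grown 24 h in DMEM with 5% horse serum and 10% FBS, then incubated with compounds. Viability by MTT (2–4 h, 37 °C), formazan dissolved in DMSO, absorbance at 570 nm; protective rate calculated from absorbance.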

hERG K^+ channel = target: T1, hERG K^+ channel (Homo sapiens, UniProt Q12809); assay: hERG K+ channel inhibition (QPatch); type: cell-based; details: hERG-expressing CHO cells, Qpatch 16X assay
T1 construct: expressed in transfected cells
Experimental: In brief, A Chinese hamster ovary (CHO) cell line stably expressing hERG potassium channels were cultured into appropriate cell density. Then cells were automatically prepared for application to chips. Whole-cell recordings were performed using automated QPatch (Sophion) and the data were analyzed using Assay Software provided by Graphpad Prism 5.0.

[3] = tested on: corticosterone injured PC12 cells; assay: Hoechst 33258 staining (apoptosis); type: cell-based, rat; details: 200 µM corticosterone and 5 µM drug
Experimental: To detect apoptotic cells, drug treated cells were stained with the DNA dye Hoechst 33258. Cells with the indicated treatment were fixed with methanol for 10 min at 4 °C before incubation with Hoechst 33258 for 10 min at room temperature. After washes with PBS, the apoptotic cells were mounted onto slides and observed under the fluorescence microscope BX61 (Olympus, Japan). Images were captured using DP71 CCD digital camera (Olympus).

[4] = tested on: corticosterone injured PC12 cells; assay: Real-time PCR NGF mRNA level; type: cell-based, rat; details: 200 µM corticosterone and 5 µM drug

T1 sequence (Q12809 whole entry): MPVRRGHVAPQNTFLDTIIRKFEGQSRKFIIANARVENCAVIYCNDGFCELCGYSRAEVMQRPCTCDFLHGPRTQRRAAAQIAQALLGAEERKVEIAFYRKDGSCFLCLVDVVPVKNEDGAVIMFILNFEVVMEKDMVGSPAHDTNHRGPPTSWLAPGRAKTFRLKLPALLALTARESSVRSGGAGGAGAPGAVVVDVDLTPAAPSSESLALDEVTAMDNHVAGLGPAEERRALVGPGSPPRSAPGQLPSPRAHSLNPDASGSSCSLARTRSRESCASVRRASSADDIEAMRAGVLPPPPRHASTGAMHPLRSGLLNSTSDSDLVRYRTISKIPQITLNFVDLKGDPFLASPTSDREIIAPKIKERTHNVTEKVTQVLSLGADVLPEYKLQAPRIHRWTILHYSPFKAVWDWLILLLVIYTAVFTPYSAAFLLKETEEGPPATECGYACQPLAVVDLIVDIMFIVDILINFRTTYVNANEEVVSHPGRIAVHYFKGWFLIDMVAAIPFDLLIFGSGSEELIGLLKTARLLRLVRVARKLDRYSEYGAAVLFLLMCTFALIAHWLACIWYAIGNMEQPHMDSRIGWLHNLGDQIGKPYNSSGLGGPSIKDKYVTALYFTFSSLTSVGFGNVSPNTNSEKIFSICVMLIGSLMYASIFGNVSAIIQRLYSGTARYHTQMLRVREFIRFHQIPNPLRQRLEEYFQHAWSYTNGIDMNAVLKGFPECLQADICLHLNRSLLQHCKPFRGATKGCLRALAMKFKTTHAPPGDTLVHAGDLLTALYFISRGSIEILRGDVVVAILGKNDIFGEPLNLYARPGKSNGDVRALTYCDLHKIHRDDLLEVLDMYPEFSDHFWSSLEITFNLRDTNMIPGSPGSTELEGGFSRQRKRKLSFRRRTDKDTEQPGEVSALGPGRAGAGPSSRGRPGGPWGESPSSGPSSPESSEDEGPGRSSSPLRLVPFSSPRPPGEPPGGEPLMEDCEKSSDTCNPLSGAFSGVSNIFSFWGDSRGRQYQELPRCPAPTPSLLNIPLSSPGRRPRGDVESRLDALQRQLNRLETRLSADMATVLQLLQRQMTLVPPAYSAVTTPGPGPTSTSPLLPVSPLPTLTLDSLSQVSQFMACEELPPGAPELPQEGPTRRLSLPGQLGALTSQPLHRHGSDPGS

| Compound | BDNF mRNA level increase compared with corticosterone-injured group [1] [%] | expression of PSA-NCAM compared with vehicle-treated group (rat hippocampus; i.p. 40 mg/kg) | PR (protection rate), Table S1 ([2]; 1.25µM) [%] | PR (protection rate) ([2]; 1.25 μM) [%] | PR (protection rate) ([2]; 5 μM) [%] | PR (protection rate) ([2]; […]) [%] | IC50 (hERG K^+ channel) [µM] | apoptosis of PC12 cells induced by corticosterone [3] | NGF mRNA level [4] | number of BrdU-labeled neuron cells (proliferation) (rat hippocampus; i.p. 40 mg/kg once daily) | number of BrdU-labeled neuron cells (survival) (rat hippocampus; i.p. 40 mg/kg once daily) | number of NeuN cells compared with vehicle-treated group (rat hippocampus; i.p. 40 mg/kg) | number of PSA-NCAM-labeled cells relative to Agomelatine group (rat hippocampus; i.p. 40 mg/kg) |
| --- | --- | --- | --- | --- | --- | --- | --- | --- | --- | --- | --- | --- | --- |
| COc1ccc2cccc(CCNC(C)=O)c2c1 [Agomelatine, reference compound] | 37.2 | reduced the expression of PSA-NCAM | 28.1 | 28.1 | 17.6 | 24.2 |  |  |  |  |  |  |  |
| COc1ccc2c(c1)C(CCNC(C)=O)=NCC2.O=C(O)C(=O)O [6a-1, N-(2-(7-Methoxy-3,4-dihydroisoquinolin-1-yl)ethyl) acetamide oxalate] | 42.8 | reduced the expression of PSA-NCAM |  |  | 42.1 | 37.1 | > 40 | effectively reversed apoptosis | does not change | remarkably increased | remarkably increased | significant (P < 0.001) increase | approximately three-fold decrease |
